Read-outs that look alike come from different tables or passages of the source.
How the values were obtained:
[1] = test system: primary Clade B HIV-1 isolates; assay: Virus inhibition assay, primary HIV-1 isolates in PBMC, p24 endpoint; format: cell-based; settings: Human immunodeficiency virus 1, PBMC
Experimental: (§1) A robust virus inhibition assay was used to evaluate the anti-viral activity of DSB against primary HIV-1 isolates propagated in PMBC. Briefly, serial dilutions of DSB were made in medium into 96-well tissue culture plates. 25-250 TCID50 of virus and 5×10^5 PHA-stimulated PBMCs were added to each well. On days 1, 3 and 5 post-infection, media was removed from each well and replaced with fresh media containing DSB at the appropriate concentration. On day 7 post-infection, culture supernatant was removed from each well for p24 detection of virus replication and 50% inhibitory concentrations (IC50) were calculated by standard methods.

[2] = test system: drug resistant HIV-1 isolates; assay: Drug resistant HIV-1 isolates in fresh PBMC, p24 endpoint; format: cell-based; settings: for IC50: Human immunodeficiency virus 1, PBMC
Experimental: as §1, with “concentration.” for “concentration. On day 7 post-infection, culture supernatant was removed from each well for p24 detection of virus replication and 50% inhibitory concentrations (IC50) were calculated by standard methods.”
(§2) The activity of DSB was tested against a panel of HIV-1 isolates resistant to approved drugs. These viruses were obtained from the NIH AIDS Research and Reference Reagent Program. Assays were performed using virus propagated in PBMCs with a p24 endpoint (above), or using cell line targets (MT-2 cells) and a cell killing endpoint. The MT-2 assay format was as follows. Serial dilutions of DSB, or each approved drug, were prepared in 96 well plates. To each sample well was added media containing MT-2 cells at 3×10^5 cells/mL and virus inoculum at a concentration necessary to result in 80% killing of the cell targets at 5 days post-infection (PI). On day 5 post-infection, virus-induced cell killing was determined by the XTT method and the inhibitory activity of the compound was determined.

[3] = test system: NNRTI-resistant HIV-1 isolates; assay: NNRTI-resistant HIV-1 isolates in MT-2 cells, cell viability (XTT) endpoint; format: cell-based; settings: for IC50: X4, MT-2 cells
Experimental: as §2

[4] = test system: HIV-1 infected MAGI cells; format: cell-based
From the text: To distinguish the inhibitory activity of DSB against early and late replication targets, a multinuclear activation of a galactosidase indicator (MAGI) assay was used. In this assay, the targets are HeLa cells stably expressing CD4, CXCR4, CCR5 and a reporter construct consisting of the—galactosidase gene (modified to localize to the nucleus) driven by a truncated HIV-1 LTR. Infection of these cells results in expression of Tat that drives activation of the β-galactosidase reporter gene. Expression of β-galactosidase in infected cells is detected using the chromogenic substrate X-gal.

[5] = test system: HIV-1 replication in H9 lymphocyte cells; settings: cited from earlier work
[6] = 168 h, isolate 92HT599, co-receptor X4, PBMC, p24 day 7, read-out: IC50
[7] = 168 h, isolate 92US723, co-receptor R5/X4, PBMC, p24 day 7, read-out: IC50
[8] = 168 h, isolate 3401N*, co-receptor R5/X4, PBMC, p24 day 7, read-out: IC50
[9] = 168 h, isolate 19101N*, co-receptor R5, PBMC, p24 day 7, read-out: IC50
[10] = 168 h, isolate 22101N*, co-receptor R5/X4, PBMC, p24 day 7, read-out: IC50
[11] = 168 h, isolate BZ167, co-receptor X4, PBMC, p24 day 7, read-out: IC50
[12] = 168 h, isolate US1, co-receptor R5, PBMC, p24 day 7, read-out: IC50
[13] = mean over the panel of primary isolates, read-out: IC50, Mean
[14] = isolate 1, NRTI-resistant, K70R T215Y/F, R5/X4
[15] = isolate 2, NRTI-resistant, K70R T215Y/F, R5/X4
[16] = isolate 5, Protease-resistant, V82A, X4
[17] = isolate 6, Protease-resistant, I84V, X4
[18] = isolate 7, Protease-resistant, L10R/M46I/L63P/V82T/I84V, X4
[19] = Human immunodeficiency virus 1, MT2, isolate 3, NNRTI-resistant, Y181C
[20] = Human immunodeficiency virus 1, MT2, isolate 4, NNRTI-resistant, K103N Y181C
[21] = H9 lymphocyte cells, read-out: EC50, inhibitory activity against HIV-1 replication

Molecule `Cc1cn([C@H]2C[C@H](N=[N+]=[N-])[C@@H](CO)O2)c(=O)[nH]c1=O` [AZT, zidovudine] has an IC50 [1, 6] of 5.8 nM, an IC50 [1, 7] of 1.2 nM and an IC50 [1, 8] of 17.5 nM. For the same molecule, the IC50 [1, 9] was 2.4 nM, the IC50 [1, 10] was 0.9 nM and the IC50 [1, 11] was 2.2 nM. The IC50 [1, 12] was 0.9 nM, the IC50 [1, 13] was 4.4 nM and the IC50 [2, 14] was 86.4 nM. The IC50 [2, 15] was 63.4 nM, the IC50 [2, 16] was 13.1 nM and the IC50 [2, 17] was 14.4 nM. For the same molecule, the IC50 [2, 18] was 3.5 nM, the “Fold Resistance” value ([2]; isolate 1, NRTI-resistant) was 54 X and the “Fold Resistance” value ([2]; isolate 2, NRTI-resistant) was 40 X. For the same molecule, the IC50 [3, 19] was 5.1 nM, the IC50 [3, 20] was 2 nM and the “% Decrease (β-galactosidase expression)” value ([4]; HIV-1 infected MAGI cells) was 82%.

In the case of `C=C(C)[C@@H]1CC[C@]2(C(=O)O)CC[C@]3(C)[C@H](CC[C@@H]4[C@@]5(C)CC[C@H](O)C(C)(C)[C@@H]5CC[C@]43C)[C@@H]12` [Betulinic acid], the EC50 [5, 21] is given as 1400 nM.

With `CC(C)(C)NC(=O)[C@@H]1CN(Cc2cccnc2)CCN1C[C@@H](O)C[C@@H](Cc1ccccc1)C(=O)N[C@H]1c2ccccc2C[C@H]1O` [Indinavir, indinavir] the IC50 [2, 14] was 9.8 nM, the IC50 [2, 15] was 6.1 nM and the IC50 [2, 16] was 39.7 nM. For the same molecule, the IC50 [2, 17] was 32.7 nM, the IC50 [2, 18] was 72.5 nM and the IC50 [3, 19] was 2.5 nM. The IC50 [3, 20] was 4.5 nM and the “% Decrease (β-galactosidase expression)” value [4] was 10%.

For `CC(=O)[C@@H]1CC[C@]2(C(=O)O)CC[C@]3(C)[C@H](CC[C@@H]4[C@@]5(C)CC[C@H](O)C(C)(C)[C@@H]5CC[C@]43C)[C@@H]12` [platanic acid], the EC50 [5, 21] is listed as 6500 nM.

For `CC(C)[C@@H]1CC[C@]2(C(=O)O)CC[C@]3(C)C(CCC4[C@@]5(C)CC[C@H](O)C(C)(C)C5CC[C@]43C)C12` (stereo partly drawn) [dihydrobetulinic acid], the EC50 ([5]; unit inferred, read-out: EC50, anti-HIV activity) is listed as 900 nM.

`Cc1ccnc2c1NC(=O)c1cccnc1N2C1CC1` [Nevirapine, nevirapine] gave an IC50 [1, 6] of 25.3 nM, an IC50 [1, 7] of 26.8 nM and an IC50 [1, 8] of 32.1 nM. The IC50 [1, 9] was 59.4 nM, the IC50 [1, 10] was 4.9 nM and the IC50 [1, 11] was 31.2 nM. The IC50 [1, 12] was 22.1 nM, the IC50 [1, 13] was 28.8 nM and the IC50 [3, 19] was greater than 3800 nM. The IC50 [3, 20] was 2630 nM, the “Fold Resistance” value ([3]; isolate 3, NNRTI-resistant) was “(>177X)” and the “Fold Resistance” value ([3]; isolate 4, NNRTI-resistant) was “(122X)”. The “% Decrease (β-galactosidase expression)” value ([4]; HIV-1 infected MAGI cells) was 85%.

Reference: patent publication US7537765B2, “Inhibition of HIV-1 replication by disruption of the processing of the viral capsid-spacer peptide 1 protein” (priority 2003, dated 2009)
